Read-outs that look alike come from different tables or passages of the source.
What was measured:
[1] = system: patients without known diabetes but with vascular disease; assay: Heart Outcomes Prevention Evaluation (HOPE) trial: new diagnosis of diabetes; assay type: in vivo, human; conditions: for New Diabetes With Glycated Hemoglobulin ≧ 110%, ULN, RR (85%) CI) / New Diabetes With Oral Agents or Insulin, RR (85%) CI) / New Diabetes With Oral Agents or insulin and Glycated Hemoglobulin ≧ 110%, ULN, RR (85%) CI) / New Diabetes, RR (85%) CI): vs placebo
Experimental: The design of the Heart Outcomes Prevention Evaluation (HOPE) trial has been described in detail in previous publications. Briefly, individuals who were 55 years or older with no evidence of left ventricular dysfunction or heart failure and who had evidence of vascular disease or who had diabetes and one other risk factor were eligible as long as they had no indication or contraindication to receiving an ACE-inhibitor. The study was conducted in 26 hospitals in 19 countries from 1994 to 1999. All patients provided written informed consent.
Of 10576 eligible patients who participated in a run-in period during which they received 2.5 mg ramipril once daily for 1 week followed by matching placebo for 10 to 14 days, 1035 (9.8%) were excluded from randomization (3.2% for side effects, 3.7% for lack of consent). […] In the following it is primarily foccuessed on the latter group of patients. Of these patients, 5720 were randomized to receive up to 10 mg of ramipril once per day or equivalent placebo. One hundred sixty-seven patients who were randomized to receive a low dose (2.5 mg/day) of ramipril as part of the Study to Evaluate Carotid Ultrasound changes with Ramipril and Vitamin E (SECURE). Substudy results are not included. All randomized patients were also randomized to receive 400 IU of Vitamin E or placebo.
Follow-up visits occurred at 1 month and 6 months after randomization and then every 6 months (mean follow-up of 4.5 years). At each visit, it was documented whether the diagnosis of diabetes had been made since the last visit.
The primary outcome of this analysis is a new diagnosis of diabetes recorded on the basis of self-report. […] Hemoglobin A1c (HbA1c) levels and medications used among those diagnosed as having diabetes were also recorded. The HbA1c levels; were determined locally. Values higher than 110% of the upper limit of normal for each laboratory were considered to be biochemical confirmation of diabetes.
Survival curves utilizing the Kaplan Meier and log-rank procedures were used to describe and compare the results in the 2 treatment groups. Because of the factorial design, all analyses were stratified for randomization to vitamin E or placebo. Subgroup analyses were conducted using tests of interaction in the Cox regression model.
Design, Setting and Participants: The randomized, controlled Heart Outcomes Prevention Evaluation trial of 5720 patients older than 55 years without known diabetes but with vascular disease who were followed up for a mean of 4.5 years. The study included 267 hospitals in 19 countries and was conducted between 1994 and 1999.
Intervention: Patients were randomly assigned to receive ramipril, up to 10 mg/d (n=2837), or placebo (n=2883).
Main Outcome Measure: Diagnosis of diabetes determined from self-report at follow-up visits every 6 months, compared between the 2 groups.

[2] = system: patients without known diabetes but with vascular disease; conditions: study participants without known diabetes at randomization (N Engl J. Med. 2000); cited from earlier work
[3] = SECURE study, P=0.03, cited from earlier work
[4] = patients with diabetes in HOPE, serial annual recordings, first 2 years; cited from earlier work
[5] = system: people at high risk, with and without a diagnosis of diabetes; conditions: cited from earlier work
[6] = ramipril up to 10 mg/d (n=2837), mean follow-up 4.5 years
[7] = subgroup Body mass index >27.7 Kg/m^2
[8] = subgroup Without microalbuminuria

## CCOC(=O)[C@H](CCc1ccccc1)N[C@@H](C)C(=O)N1[C@H](C(=O)O)C[C@@H]2CCC[C@@H]21 [ramipril]
[1]; No new MA or ON
  New Diabetes With Glycated Hemoglobulin ≧ 110%, ULN, No. of patients: 42
  New Diabetes With Glycated Hemoglobulin ≧ 110%, ULN, proportion of patients (in parentheses): 1.7
  New Diabetes With Oral Agents or Insulin, No. of patients: 45
  New Diabetes With Oral Agents or Insulin, proportion of patients (in parentheses): 1.8
  New Diabetes With Oral Agents or insulin and Glycated Hemoglobulin ≧ 110%, ULN, No. of patients: 30
  New Diabetes With Oral Agents or insulin and Glycated Hemoglobulin ≧ 110%, ULN, proportion of patients (in parentheses): 1.2
  New Diabetes, No. of patients: 82
  New Diabetes, proportion of patients (in parentheses): 3.3
  New Diabetes With Glycated Hemoglobulin ≧ 110%, ULN, RR (85%) CI): 0.66 (0.48-0.98)
  New Diabetes With Oral Agents or Insulin, RR (85%) CI): 0.56 (0.39-0.81)
  New Diabetes With Oral Agents or insulin and Glycated Hemoglobulin ≧ 110%, ULN, RR (85%) CI): 0.60 (0.38-0.94)
  New Diabetes, RR (85%) CI): 0.67 (0.51-0.89)
[1]; No primary event
  New Diabetes With Glycated Hemoglobulin ≧ 110%, ULN, No. of patients: 45
  New Diabetes With Glycated Hemoglobulin ≧ 110%, ULN, proportion of patients (in parentheses): 1.8
  New Diabetes With Oral Agents or Insulin, No. of patients: 54
  New Diabetes With Oral Agents or Insulin, proportion of patients (in parentheses): 2.2
  New Diabetes With Oral Agents or insulin and Glycated Hemoglobulin ≧ 110%, ULN, No. of patients: 32
  New Diabetes With Oral Agents or insulin and Glycated Hemoglobulin ≧ 110%, ULN, proportion of patients (in parentheses): 1.3
  New Diabetes, No. of patients: 93
  New Diabetes, proportion of patients (in parentheses): 3.8
  New Diabetes With Oral Agents or Insulin, RR (85%) CI): 0.58 (0.42-0.82)
  New Diabetes With Oral Agents or insulin and Glycated Hemoglobulin ≧ 110%, ULN, RR (85%) CI): 0.51 (0.33-0.78)
  New Diabetes, RR (85%) CI): 0.69 (0.53-0.91)
[1]; With new MA or ON
  New Diabetes With Glycated Hemoglobulin ≧ 110%, ULN, No. of patients: 10
  New Diabetes With Glycated Hemoglobulin ≧ 110%, ULN, proportion of patients (in parentheses): 2.8
  New Diabetes With Oral Agents or insulin and Glycated Hemoglobulin ≧ 110%, ULN, No. of patients: 6
  New Diabetes With Oral Agents or insulin and Glycated Hemoglobulin ≧ 110%, ULN, proportion of patients (in parentheses): 1.7
  New Diabetes, No. of patients: 20
  New Diabetes, proportion of patients (in parentheses): 5.8
  New Diabetes With Glycated Hemoglobulin ≧ 110%, ULN, RR (85%) CI): 0.47 (0.23-0.98)
  New Diabetes With Oral Agents or insulin and Glycated Hemoglobulin ≧ 110%, ULN, RR (85%) CI): 0.32 (0.13-0.79)
  New Diabetes, RR (85%) CI): 0.65 (0.38-1.12)
[1]; With new NA or ON
  New Diabetes With Oral Agents or Insulin, No. of patients: 14
  New Diabetes With Oral Agents or Insulin, proportion of patients (in parentheses): 3.9
  New Diabetes With Oral Agents or Insulin, RR (85%) CI): 0.61 (0.32-1.16)
[1]; With primary event
  New Diabetes With Glycated Hemoglobulin ≧ 110%, ULN, No. of patients: 7
  New Diabetes With Glycated Hemoglobulin ≧ 110%, ULN, proportion of patients (in parentheses): 1.9
  New Diabetes With Oral Agents or Insulin, No. of patients: 5
  New Diabetes With Oral Agents or Insulin, proportion of patients (in parentheses): 1.3
  New Diabetes With Oral Agents or insulin and Glycated Hemoglobulin ≧ 110%, ULN, No. of patients: 4
  New Diabetes With Oral Agents or insulin and Glycated Hemoglobulin ≧ 110%, ULN, proportion of patients (in parentheses): 1.1
  New Diabetes, No. of patients: 9
  New Diabetes, proportion of patients (in parentheses): 2.4
  New Diabetes With Glycated Hemoglobulin ≧ 110%, ULN, RR (85%) CI): 0.59 (0.24-1.43)
  New Diabetes With Oral Agents or Insulin, RR (85%) CI): 0.42 (0.15-1.14)
  New Diabetes With Oral Agents or insulin and Glycated Hemoglobulin ≧ 110%, ULN, RR (85%) CI): 0.54 (0.17-1.72)
  New Diabetes, RR (85%) CI): 0.48 (0.21-0.98)
[1]; ramipril group
  patients diagnosed to have diabetes and glycated hemoglobin of 110% or more above upper limit of normal, %: 1.8%
  patients with new diabetes meeting all criteria, %: 1.3%
  patients with new diabetes receiving an oral glucose lowering agent or insulin, %: 2.1%
[1]; [6]
  individuals who reported a new diagnosis of diabetes, %: 3.6%
  individuals who reported a new diagnosis of diabetes, No.: 102 and One hundred and two
[1]; ramipril vs placebo
  relative risk of diabetes diagnosis with glycated hemoglobin of 110% or more of ULN: 0.60
  relative risk of new diabetes meeting all criteria: 0.51
  relative risk of new diabetes with oral glucose lowering agent or insulin: 0.56
  relative risk of new diagnosis of diabetes: 0.66
[1]; subgroup
  No. With Diabetes: 39
[1]; [7]
  (%) With Diabetes: (5.8) %
  No. With Diabetes: 63
[1]; subgroup Body mass index ≦7.7 Kg/m^2
  (%) With Diabetes: (2.2) %
[1]; subgroup Not taking diuretics
  (%) With Diabetes: (3.4) %
  No. With Diabetes: 84
[1]; subgroup Not taking β-blocker
  (%) With Diabetes: (3.3) %
  No. With Diabetes: 50
[1]; subgroup Taking diuretics
  (%) With Diabetes: (5.0) %
  No. With Diabetes: 18
[1]; subgroup Taking β-blocker
  (%) With Diabetes: (4.0) %
  No. With Diabetes: 52
[1]; subgroup Waist-hip ratio >0.93
  (%) With Diabetes: (4.4) %
  No. With Diabetes: 63
[1]; subgroup Waist-hip ratio ≦0.93
  (%) With Diabetes: (2.8) %
  No. With Diabetes: 39
[1]; subgroup With hypertension
  (%) With Diabetes: (4.2) %
  No. With Diabetes: 49
[1]; subgroup With microalbuminuria
  (%) With Diabetes: (4.2) %
  No. With Diabetes: 17
[1]; subgroup Without hypertension
  (%) With Diabetes: (3.2) %
  No. With Diabetes: 53
[1]; [8]
  (%) With Diabetes: (3.5) %
  No. With Diabetes: 85
[1]; subgroup who never took diuretics or β-blockers during the study, ramipril vs placebo
  relative risk for diabetes: 0.62
[2]
  development of diabetes: reduced
[3]; placebo 0.41 mmols
  increase in fasting glucose: 0.25 mmols
[3]; placebo 15.8 mg/dL
  increase in fasting glucose: 9.6 mg/dL
[4]
  reduction in HbA10 levels, absolute difference: 0.2%
[5]
  myocardial infarction, strokes, death, and the development of diabetic nephropathy: reduces

## Vitamin E
[1]; 400 IU Vitamin E vs placebo
  effect on diabetes: did not differ
